From patent publication US6849645B2, “Method of increased bioavailability of nutrients and pharmaceutical preparations with tetrahydropiperine and its analogues and derivatives” (priority 2000, dated 2005)

Assays:
Earthworms = assay: Albendazole induced anthelmintic activity on earthworms (paralysis and death); type: in vivo, earthworm
Protocol: An experiment to see how tetrahydropiperine enhances the skin permeability of anthelmintic drugs such as albendazole on intestinal worms was conducted. However, as a preliminary study towards this, tests on earthworms were conducted.
Earthworms were obtained from the Al Ameen College of Pharmacy, Bangalore. Albendazole (Zentel) was obtained from Smith Kline Beecham Pharmaceuticals, Bangalore. The aqueous test solution contained tetrahydropiperine (Tetraperine™, A proprietary product of Sabinsa Corporation, USA) of 0.1% and 0.2% w/v suspended in 0.25% w/v sodium carboxy methyl cellulose.
1. Effect of Albendazole: Earth worms of similar length and weight were divided into three groups of six worms each. […] The time of onset of paralysis was noted and the death of the worms were observed and recorded as above.

[1] = type: in vitro ADME, mouse
Protocol: The drug (100 ug/ml) was applied with 0.1% (active sample) or without (control sample) of THP in the donor compartment. Subsequently the absorbencies of the fluid in the receptor compartment for the presence of BMDP and THP were measured in time intervals of 5, 10, 15, 20, 30, 45 and 60 minutes.
Franz diffusion cell was utilized in the experiment. This is an in vitro set-up prepared from the graft of the abdominal skin of mouse to evaluate absorption of drugs and nutrients through the skin. The Franz diffusion cell contains Donor and Receptor compartments. The test drug, BMDP, with or without tetrahydropiperine (Control) was applied on one side of the skin (Donor compartment). The drug's transport to the Receptor side of the skin was estimated by UV method at pre-determined time intervals. […]
The hydrated skin was mounted on Franz diffusion cell with shaved surface facing the donor compartment. […] Absorbance of each sample was measured by UV spectrophotometer at the wavelength of 256 nm. • b. […] Absorbance of each sample was measured by UV spectrophotometer at the wavelength of 256 nm.
UV absorption Spectra of BMDP solutions show absorption at 238 nm when prepared in saline with tween 20 solution. […] Tetrahydropiperine gave absorbance at 228 nm and 275 nm. • 2. The absorbance of tetrahydropiperine was minimum at 256 nm while it was good for BMDP. […]

[2] = tested on: tobacco cut worm, Spodoptera litura F.; assay: whole plant or invertebrate; settings: Spodoptera litura, in Nicotiana tabacum, 48 h, read-out: PERCENT MORTALITY (Mean of 4 replications)
Protocol: The tetrahydropiperine was tested against tobacco cut worm, Spodoptera litura F. to determine its possible increased kill rate when used with Fenvalerate—a synthetic pyrethroid.
• a. Preparation of test solution—0.5 g of the test product was dissolved in 1 ml of Ethanol and made up to 100 ml in standard volumetric flask using suitable emulsifier. This solution contains 5000 ppm a.i. (0.5 percent). Further, serial dilution was made to get 0.25, 0.125 and 0.0625% of the test product. To each of these test solutions, Fenvalerate was added to get 250 ppm of Fenvalerate a.i. in the final volume. For comparison 0.5 percent of Tetrahydropiperine, Ethanol 1.0 percent solution and 250 ppm a.i. of Fenvalerate was used. • b. Bioassay—Laboratory reared 7 day old larvae of tobacco cut worm, Spodoptera litura were used in the experiment. After a series of preliminary tests the concentrations chosen for the experiment were 0.5, 0.25, 0.125 and 0.0625 percent tetrahydropiperine. Fresh castor leaves were dipped for 30 seconds in above concentrations of test and standard compounds and blank solutions. After proper drying, the treated leaves were transferred to plastic containers. To each container 5 larvae were released. This was repeated four times so as to have 20 larvae for each concentration. Larvae in control set were fed with leaves dipped in water. Observations were recorded for larval mortality after 48 hours of exposure. Results

[3] = Franz diffusion cell, in vitro transdermal permeation of Forskolin with or without tetrahydropiperine; type: in vitro ADME, rat
Protocol: In vitro permeation studies of Forskholin, a diterpenoid compound which has various therapeutic effects (Bronchodilation—used in Asthma, prevents platelet aggregation, anti hypertensive, anti glaucoma and anti-inflammatory) was carried out. Fabricated Franz diffusion cells of capacity 67 and 69 ml were used for the study. Freshly excised rat abdominal skin was used for the permeation studies.
Solutions Used in the Study • a) 2.5% Forskolin in methanol. • b) 0.05% Tetrahydropiperine in 2.5% Forskolin in methanol. • c) 0.1% Tetrahydropiperine in 2.5% Forskolin in methanol. Procedure
Freshly excised rat abdominal […] was mounted on the Franz diffusion Cell, the outer layer of the skin facing the donor compartment. The receptor fluid was maintained at 35° C. using a thermostatic magnetic stirrer.
The study was conducted by replacing the medium in the receptor compartment with methanol instead of phosphate buffer. In both the receptor and donor compartment methanol was used as the medium in the permeation studies.
(§1) In the donor compartment 2 ml methanol containing 50 mg of Forskolin and tetrahydropiperine (5% of Forskolin conc.) was taken. Receptor compartment consisted of 69 ml of methanol maintained at 35° C. Permeation study was carried out for a period of 1 hr. Samples were withdrawn at 15, 30 and 60 minutes intervals and the amount of Forskholin present was analyzed by HPLC.
as §1, with “Forskholin” for “Forskolin and tetrahydropiperine (5% of Forskolin conc.)”, “65” for “69”, “hour.” for “hr.”

CCCSc1ccc2nc(NC(=O)OC)[nH]c2c1 [Albendazole, reference compound]
Time taken in minutes (Mean ± SEM), Paralysis (Earthworms; Albendazole 0.2% w/v alone): 99.0 ± 3.93 min | time until anthelmintic activity (Earthworms; albendazole 0.1%): > 2 h | time until anthelmintic activity (Earthworms; albendazole 0.2%): ≤ 2 h

CCC(=O)OCC(=O)[C@@]1(OC(=O)CC)[C@@H](C)C[C@H]2[C@@H]3CCC4=CC(=O)C=C[C@]4(C)[C@@]3(F)[C@@H](O)C[C@@]21C [BMDP, Betamethasone dipropionate]
amount of drug (BMDP) diffused in control [1]: undetectable

CC(C)C(C(=O)OC(C#N)c1cccc(Oc2ccccc2)c1)c1ccc(Cl)cc1 (centres unmarked) [Fenvalerate, reference compound]
mortality at 250 ppm [2]: 55%

C=C[C@@]1(C)CC(=O)[C@]2(O)[C@@]3(C)[C@@H](O)CCC(C)(C)[C@@H]3[C@H](O)[C@H](OC(C)=O)[C@@]2(C)O1 [Forskolin, reference compound]
Forskolin Release Control ([3]; Forskolin 50 mg in methanol without THP, 15 min): 1.28 | Forskolin Release Control ([3]; Forskolin without THP, 30 min): 4.05 | Forskolin Release Control ([3]; Forskolin without THP, 60 min): 8.45
